Measurements reported in publication PMC12526278, “Origanum vulgare subsp. virens (Hoffmanns. & Link) Bonnier & Layens Essential Oils: Chemotypes and Bioactivity as Antifungal, Antifeeding and Enzyme Inhibitors” (Plants, 2025).
Converted amounts (≈) assume the structure as drawn.

How the values were obtained:
[1] = molecular target: T1, β-glucosidase (β-GLU) from almonds; test: 4-nitrophenol release, absorbance […] nm; type: biochemical, Prunus dulcis; conditions: 4-nitrophenyl beta-D-glucopyranoside, 0.1 M phosphate pH 7.0, 37 °C, 20 min
T1 construct: gene beta-glucosidase; commercial enzyme from almonds (Sigma-Aldrich)

[2] = tested on: T2, α-glucosidase (α-GLU) extracted from Saccharomyces cerevisiae; test: 4-nitrophenol release, absorbance […] nm; type: biochemical; conditions: 4-nitrophenyl alpha-D-glucopyranoside (5 mM solution), 0.1 M phosphate pH 7.0, 37 °C, 20 min; unreliable (far above the tested range, extrapolated)
T2 construct: gene MAL12; commercial yeast enzyme (Sigma-Aldrich)

[3] = molecular target: T3, AChE from Electrophorus electricus (Electrophorus electricus, UniProt O42275); test: biochemical
[4] = molecular target: T3, AChE from Electrophorus electricus; test: Ellman assay, absorbance […] nm; type: biochemical; conditions: acetylthiocholine iodide substrate with DTNB, phosphate buffer, 5 min preincubation; unreliable (above the tested range, extrapolated)
[5] = molecular target: T2, α-glucosidase (α-GLU) extracted from Saccharomyces cerevisiae; test: 4-nitrophenol release, absorbance […] nm; type: biochemical; conditions: 4-nitrophenyl alpha-D-glucopyranoside (5 mM solution), 0.1 M phosphate pH 7.0, 37 °C, 20 min
[6] = molecular target: T3, AChE from Electrophorus electricus; test: Ellman assay, absorbance […] nm; type: biochemical; conditions: acetylthiocholine iodide substrate with DTNB, phosphate buffer; no significant inhibition

T3 sequence (O42275 24-633): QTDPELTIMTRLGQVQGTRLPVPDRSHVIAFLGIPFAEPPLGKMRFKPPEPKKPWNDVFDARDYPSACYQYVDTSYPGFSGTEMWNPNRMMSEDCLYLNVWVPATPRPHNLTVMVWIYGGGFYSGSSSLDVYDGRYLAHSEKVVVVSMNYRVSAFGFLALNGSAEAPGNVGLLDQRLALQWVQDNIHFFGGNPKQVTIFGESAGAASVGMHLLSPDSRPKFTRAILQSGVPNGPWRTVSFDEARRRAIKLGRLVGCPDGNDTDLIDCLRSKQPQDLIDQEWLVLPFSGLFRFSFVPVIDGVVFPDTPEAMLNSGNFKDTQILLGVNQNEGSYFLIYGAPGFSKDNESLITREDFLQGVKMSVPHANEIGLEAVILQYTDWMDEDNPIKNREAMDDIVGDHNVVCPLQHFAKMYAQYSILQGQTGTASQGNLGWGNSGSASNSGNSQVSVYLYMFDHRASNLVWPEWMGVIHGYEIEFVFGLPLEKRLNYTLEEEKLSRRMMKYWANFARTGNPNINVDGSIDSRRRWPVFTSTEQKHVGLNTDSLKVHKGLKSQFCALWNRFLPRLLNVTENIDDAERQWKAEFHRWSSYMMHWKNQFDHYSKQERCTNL

## OC[C@H]1NC[C@H](O)[C@@H](O)[C@@H]1O [1-DNJ]
[1]
  β-GLU / IC50: 36 ± 1 µg/mL

## Cc1ccc(C(C)C)cc1O [Carvacrol]
[2]
  α-GLU / IC50: 109340 ± 23120 µg/mL
[3]
  IC50: 180 µM

## Cc1ccc(C(C)C)c(O)c1 [Thymol]
[4]
  IC50: 2531 ± 515 µg/mL (≈ 16.8 mM)
[5]
  α-GLU / IC50: 304 ± 25 µg/mL

## CC1=CCC(C(C)C)=CC1 [γ-terpinene]
[6]
  Ellman assay, absorbance 405 nm: did not show significant AChE inhibition under our experimental conditions
